{"source": "ChEMBL document CHEMBL4414609", "about": "“High-Affinity Alkynyl Bisubstrate Inhibitors of Nicotinamide N-Methyltransferase (NNMT)” (J Med Chem, 2019)", "key": {"[1]": {"target": "T1, COMT (catechol O-methyltransferase) (Homo sapiens, UniProt P21964)", "T1 sequence (P21964 whole entry)": "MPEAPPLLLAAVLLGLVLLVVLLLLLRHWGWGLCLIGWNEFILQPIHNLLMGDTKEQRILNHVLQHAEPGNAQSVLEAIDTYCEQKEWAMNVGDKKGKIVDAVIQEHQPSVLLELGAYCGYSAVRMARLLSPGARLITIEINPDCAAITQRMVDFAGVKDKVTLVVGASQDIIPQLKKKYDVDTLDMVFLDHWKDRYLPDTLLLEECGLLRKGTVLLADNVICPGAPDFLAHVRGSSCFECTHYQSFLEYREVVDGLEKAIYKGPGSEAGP", "experiment": "Inhibition of human COMT expressed in Escherichia coli at 1 uM assessed as reduction in SAH level using pyrocatechol as substrate in presence of SAM incubated for 15 mins by LC-MS/MS analysis relative to control", "settings": "recombinant human COMT expressed in Escherichia coli, probe pyrocatechol"}, "[2]": {"target": "Histone-lysine N-methyltransferase, H3 lysine-79 specific (Homo sapiens, UniProt Q8TEK3)", "sequence (Q8TEK3 whole entry)": "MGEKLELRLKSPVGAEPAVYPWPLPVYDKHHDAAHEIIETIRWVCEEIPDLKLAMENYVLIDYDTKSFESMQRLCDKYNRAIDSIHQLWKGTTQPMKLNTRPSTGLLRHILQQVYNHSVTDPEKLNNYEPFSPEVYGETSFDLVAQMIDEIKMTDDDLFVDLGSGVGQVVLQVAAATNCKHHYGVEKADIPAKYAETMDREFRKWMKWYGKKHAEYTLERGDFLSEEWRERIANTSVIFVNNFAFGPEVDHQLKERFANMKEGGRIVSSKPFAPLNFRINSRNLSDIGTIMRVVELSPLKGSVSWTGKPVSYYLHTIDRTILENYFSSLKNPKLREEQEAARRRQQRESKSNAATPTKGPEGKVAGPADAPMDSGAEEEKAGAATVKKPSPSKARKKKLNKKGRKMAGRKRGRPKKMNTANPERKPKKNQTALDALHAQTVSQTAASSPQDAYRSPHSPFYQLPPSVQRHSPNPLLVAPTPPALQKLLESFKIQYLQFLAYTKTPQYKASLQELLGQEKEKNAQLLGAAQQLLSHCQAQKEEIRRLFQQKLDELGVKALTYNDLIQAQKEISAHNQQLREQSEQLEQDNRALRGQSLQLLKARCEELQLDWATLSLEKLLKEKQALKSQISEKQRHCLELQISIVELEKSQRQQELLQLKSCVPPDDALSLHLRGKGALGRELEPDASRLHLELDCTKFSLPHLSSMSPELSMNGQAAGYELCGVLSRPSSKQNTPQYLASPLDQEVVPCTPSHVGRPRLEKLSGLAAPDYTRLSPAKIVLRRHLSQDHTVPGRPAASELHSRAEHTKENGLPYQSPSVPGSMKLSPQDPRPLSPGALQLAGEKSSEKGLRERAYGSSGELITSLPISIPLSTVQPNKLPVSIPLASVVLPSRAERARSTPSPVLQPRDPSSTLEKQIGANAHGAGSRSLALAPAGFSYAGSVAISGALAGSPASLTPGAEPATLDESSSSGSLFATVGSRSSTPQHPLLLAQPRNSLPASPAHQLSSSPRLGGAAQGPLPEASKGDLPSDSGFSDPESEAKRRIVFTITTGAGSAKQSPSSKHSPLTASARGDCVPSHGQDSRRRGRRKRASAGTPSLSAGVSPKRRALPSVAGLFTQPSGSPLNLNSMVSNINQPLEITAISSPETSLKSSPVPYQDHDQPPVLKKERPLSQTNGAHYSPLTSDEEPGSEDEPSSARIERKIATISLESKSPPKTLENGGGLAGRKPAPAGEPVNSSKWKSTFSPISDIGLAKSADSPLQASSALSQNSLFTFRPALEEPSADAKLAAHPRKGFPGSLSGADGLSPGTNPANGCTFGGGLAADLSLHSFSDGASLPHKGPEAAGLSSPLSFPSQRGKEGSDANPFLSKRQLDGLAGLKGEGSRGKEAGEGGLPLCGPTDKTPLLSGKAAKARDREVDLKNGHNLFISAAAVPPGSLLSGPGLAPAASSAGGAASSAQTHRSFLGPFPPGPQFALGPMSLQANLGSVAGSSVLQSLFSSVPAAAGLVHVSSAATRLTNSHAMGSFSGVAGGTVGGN", "experiment": "Inhibition of human DOT1L expressed in Escherichia coli assessed as reduction in methylated polynucleosome level using polynucleosome as substrate in presence of [3H] SAM incubated for 15 mins by scintillation counting"}, "[3]": {"target": "DNA (cytosine-5)-methyltransferase 3A (Homo sapiens, UniProt Q9Y6K1)", "sequence (Q9Y6K1 whole entry, looked up)": "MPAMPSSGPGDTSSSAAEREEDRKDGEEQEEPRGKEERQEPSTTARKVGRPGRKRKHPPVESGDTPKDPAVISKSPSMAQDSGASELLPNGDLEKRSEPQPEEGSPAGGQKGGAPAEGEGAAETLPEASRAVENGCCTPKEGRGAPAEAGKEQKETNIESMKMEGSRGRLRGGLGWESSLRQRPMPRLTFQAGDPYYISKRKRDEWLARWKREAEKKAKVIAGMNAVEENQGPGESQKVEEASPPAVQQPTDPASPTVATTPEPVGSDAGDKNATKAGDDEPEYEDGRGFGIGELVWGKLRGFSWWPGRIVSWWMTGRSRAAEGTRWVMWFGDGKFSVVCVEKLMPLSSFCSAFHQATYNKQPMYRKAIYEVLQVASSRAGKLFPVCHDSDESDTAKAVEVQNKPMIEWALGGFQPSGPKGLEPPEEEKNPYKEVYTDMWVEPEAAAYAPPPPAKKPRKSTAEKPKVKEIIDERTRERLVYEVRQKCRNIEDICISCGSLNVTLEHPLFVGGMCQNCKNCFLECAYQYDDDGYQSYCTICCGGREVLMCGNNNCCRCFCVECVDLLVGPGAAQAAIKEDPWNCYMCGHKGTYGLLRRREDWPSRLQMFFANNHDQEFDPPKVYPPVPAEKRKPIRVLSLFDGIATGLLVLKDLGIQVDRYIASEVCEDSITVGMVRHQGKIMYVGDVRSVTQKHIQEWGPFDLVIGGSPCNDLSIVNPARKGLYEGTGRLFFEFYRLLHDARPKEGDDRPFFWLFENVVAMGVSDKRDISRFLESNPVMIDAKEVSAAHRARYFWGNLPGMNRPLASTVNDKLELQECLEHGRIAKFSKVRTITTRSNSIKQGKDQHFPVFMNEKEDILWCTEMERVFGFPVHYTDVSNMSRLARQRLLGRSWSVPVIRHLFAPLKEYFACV", "experiment": "Inhibition of human DNMT3a expressed in insect sf9 cells assessed as reduction in methylated poly(dI-dC)-Poly(dI-dC) level using poly(dI-dC)-poly(dI-dC) as substrate in presence of [3H] SAM incubated for 10 mins by scintillation counting"}, "[4]": {"target": "T2, Histone-lysine N-methyltransferase EHMT2 (Homo sapiens, UniProt Q96KQ7)", "T2 sequence (Q96KQ7 whole entry)": "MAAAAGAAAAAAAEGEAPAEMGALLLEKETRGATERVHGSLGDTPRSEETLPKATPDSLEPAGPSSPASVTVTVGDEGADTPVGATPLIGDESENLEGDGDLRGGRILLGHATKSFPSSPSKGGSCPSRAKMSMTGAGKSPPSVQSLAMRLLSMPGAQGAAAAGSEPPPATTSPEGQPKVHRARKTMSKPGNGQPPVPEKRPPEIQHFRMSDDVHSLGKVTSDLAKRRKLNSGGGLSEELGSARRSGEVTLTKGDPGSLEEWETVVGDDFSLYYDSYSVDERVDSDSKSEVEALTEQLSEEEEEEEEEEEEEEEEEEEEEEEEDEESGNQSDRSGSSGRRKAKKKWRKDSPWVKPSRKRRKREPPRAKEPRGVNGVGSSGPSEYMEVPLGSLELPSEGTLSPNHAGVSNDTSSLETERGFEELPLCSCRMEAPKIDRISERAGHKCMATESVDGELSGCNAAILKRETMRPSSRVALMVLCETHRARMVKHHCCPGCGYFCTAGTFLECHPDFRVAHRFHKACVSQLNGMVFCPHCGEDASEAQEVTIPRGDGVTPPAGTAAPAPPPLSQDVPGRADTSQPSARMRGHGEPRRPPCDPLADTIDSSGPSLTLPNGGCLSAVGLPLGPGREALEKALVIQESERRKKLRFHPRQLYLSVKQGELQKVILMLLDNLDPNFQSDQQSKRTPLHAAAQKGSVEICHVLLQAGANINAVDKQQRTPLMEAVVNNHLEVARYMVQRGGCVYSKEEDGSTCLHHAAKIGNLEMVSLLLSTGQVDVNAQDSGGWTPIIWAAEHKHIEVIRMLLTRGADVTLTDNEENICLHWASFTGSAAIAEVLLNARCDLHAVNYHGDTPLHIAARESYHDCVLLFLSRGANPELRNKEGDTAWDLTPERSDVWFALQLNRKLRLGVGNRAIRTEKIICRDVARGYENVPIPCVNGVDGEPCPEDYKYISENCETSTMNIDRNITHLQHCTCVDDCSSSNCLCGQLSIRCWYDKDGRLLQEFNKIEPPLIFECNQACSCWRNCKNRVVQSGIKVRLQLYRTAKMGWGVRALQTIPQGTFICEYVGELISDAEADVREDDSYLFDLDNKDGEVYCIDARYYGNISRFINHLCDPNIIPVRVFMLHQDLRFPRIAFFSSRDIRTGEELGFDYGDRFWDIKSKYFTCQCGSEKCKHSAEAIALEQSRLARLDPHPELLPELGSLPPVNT", "experiment": "Inhibition of human G9a expressed in Escherichia coli assessed as reduction in methylated histone H3 full length using histone H3 full length level as substrate in presence of [3H] SAM incubated for 120 mins by scintillation counting"}, "[5]": {"target": "T3, GNMT (glycine N-methyltransferase) (Homo sapiens, UniProt Q14749)", "T3 sequence (Q14749 whole entry)": "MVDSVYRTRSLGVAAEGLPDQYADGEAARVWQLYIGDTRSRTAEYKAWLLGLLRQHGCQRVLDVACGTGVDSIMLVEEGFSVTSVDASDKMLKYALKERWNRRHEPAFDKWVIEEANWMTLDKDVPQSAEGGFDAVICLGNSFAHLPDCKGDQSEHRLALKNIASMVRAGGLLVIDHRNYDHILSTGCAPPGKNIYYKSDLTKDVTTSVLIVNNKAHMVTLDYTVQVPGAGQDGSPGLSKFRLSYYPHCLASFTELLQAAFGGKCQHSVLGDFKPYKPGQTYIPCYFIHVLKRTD", "experiment": "Inhibition of human GNMT expressed in Escherichia coli at 10 uM assessed as reduction in SAH level using glycine as substrate in presence of SAM incubated for 30 mins by LC-MS/MS analysis relative to control", "settings": "recombinant human GNMT expressed in Escherichia coli, probe glycine"}, "[6]": {"target": "INMT (indolethylamine N-methyltransferase) (Homo sapiens, UniProt O95050)", "sequence (O95050 whole entry)": "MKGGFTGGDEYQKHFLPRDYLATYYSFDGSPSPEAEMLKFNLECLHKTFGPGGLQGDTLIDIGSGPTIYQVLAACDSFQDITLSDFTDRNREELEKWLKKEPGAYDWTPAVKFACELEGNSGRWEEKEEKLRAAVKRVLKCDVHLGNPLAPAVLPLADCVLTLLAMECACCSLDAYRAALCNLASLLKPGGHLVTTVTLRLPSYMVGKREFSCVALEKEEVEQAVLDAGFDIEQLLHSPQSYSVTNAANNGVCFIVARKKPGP", "experiment": "Inhibition of wild type human INMT expressed in Escherichia coli at 1 uM using tryptamine as substrate in presence of SAM incubated for 30 mins by MTase-Glo assay relative to control", "settings": "probe tryptamine"}, "[7]": {"target": "HNMT (histamine N-methyltransferase) (Homo sapiens, UniProt P50135)", "sequence (P50135 whole entry)": "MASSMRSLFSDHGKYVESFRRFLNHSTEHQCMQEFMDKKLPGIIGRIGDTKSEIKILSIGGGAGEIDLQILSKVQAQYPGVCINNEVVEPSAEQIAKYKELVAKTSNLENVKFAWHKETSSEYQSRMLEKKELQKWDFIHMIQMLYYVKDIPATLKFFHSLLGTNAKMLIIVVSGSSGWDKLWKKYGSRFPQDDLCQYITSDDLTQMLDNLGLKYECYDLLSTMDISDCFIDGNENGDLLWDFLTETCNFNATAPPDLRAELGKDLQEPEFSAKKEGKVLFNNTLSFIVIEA", "experiment": "Inhibition of human HNMT expressed in Escherichia coli at 10 uM assessed as reduction in SAH level using histamine as substrate in presence of SAM incubated for 15 mins by LC-MS/MS analysis relative to control", "settings": "recombinant human HNMT expressed in Escherichia coli, probe histamine"}}}
{"smiles": "NC(=O)c1cccc(C#C[C@@H](CC[C@H](N)C(=O)O)C[C@H]2O[C@@H](n3cnc4c(N)ncnc43)[C@H](O)[C@@H]2O)c1", "values": [{"measurement": "inhibition at 0.25 h, 1 µM", "setting": "[1]", "value": 0, "unit": "%"}, {"measurement": "IC50", "setting": "[2]", "value": "> 10", "unit": "µM"}, {"measurement": "IC50", "setting": "[3]", "value": 7.6, "unit": "µM"}, {"measurement": "IC50", "setting": "[4]", "value": "> 10", "unit": "µM"}, {"measurement": "inhibition at 0.5 h, 10 µM", "setting": "[5]", "value": 23, "unit": "%"}, {"measurement": "inhibition at 0.5 h, 1 µM", "setting": "[6]", "value": 14, "unit": "%"}, {"measurement": "inhibition at 0.25 h, 10 µM", "setting": "[7]", "value": 2, "unit": "%"}]}
